Assay results published in patent publication US5597829A, “Lactone stable formulation of camptothecin and methods for uses thereof” (priority 1994, dated 1997).
Entries after “also recorded” stand apart in the source; their conditions may differ. Like-named read-outs stand apart in the source and are kept apart here.

Key:
[1] = cited from earlier work
[2] = system: Topoisomerase I purified from human colon carcinoma cells or calf thymus; settings: cited from earlier work
LD1210 leukemia = settings: 10-100 mg/kg intraperitoneally; cited from earlier work
[3] = human, in vivo; cited from earlier work
[4] = cited from earlier work; remark: listed apart in the source
[5] = Predicted outcome of administering lactone stable CPT to patients; type: in vivo, human
Text: The novel features of the present invention include the following: (1) pharmaceutically acceptable formulations which allow the direct parenteral administration of lactone stable CPT to human subjects with cancer, (2) pharmaceutically acceptable formulations which allow the direct oral administration of lactone stable CPT to human subjects with cancer, and (3) dosages and schedules for the administration of lactone stable CPT to patients with cancer by parenteral and oral routes of administration. […] The inventors predict that by administering the carboxylate species of CPT a higher incidence of renal toxicity is observed than would be observed if the lactone species of CPT were administered.
Inventors claim that reason previous use of sodium CPT caused hemorrhagic cystitis relates to the enhanced renal excretion of the carboxylate form of CPT which when exposed to the lower pH (~pH 5) of the distal convoluted tubule in the kidney, the carboxylate form of CPT is converted to the lactone form of CPT. […] Elimination of CPT by the renal route is enhanced by administration of the carboxylate form and is reduced by administration of the lactone form.

[6] = cited from earlier work; remark: listed apart in the source
[7] = pH below 7.0; cited from earlier work
[8] = Oral absorption / bioavailability; type: in vivo; settings: with taurocholic acid or salt in solution dosage composition
Text: Taurocholic acid, a bile acid, may enhance in the intestinal absorption of the drug in certain patients. […] It is believed that this is due to the formation of a micellar solution of CPT on dilution thereof with the gastric contents.
Analogous to that of etoposide, it is believed that ingestion of the present dosage form of CPT and resulting dilution thereof by the stomach contents, results in the formation of a micellar solution of CPT in the stomach which is readily absorbed by the gastrointestinal tract.

DNA = settings: in vitro cells; cited from earlier work
[9] = system: topoisomerase I-cleaved DNA complex; settings: cited from earlier work
L1210 cells = settings: cited from earlier work
malignant melanoma = settings: cited from earlier work
[10] = 24 hours after, once daily ×5, 6.5-20 mg/m^2 /day; cited from earlier work
[11] = cited from earlier work; remark: listed apart in the source
[12] = carboxylate form; cited from earlier work
[13] = 5-day course (27 patients), 4 wks
[14] = 5-day course (27 patients), 8 wks
[15] = 5-day course (27 patients), 12 wks
[16] = 5-day course, 15 mg/m^2 × 5, 9 treated
[17] = 5-day course, 17 mg/m^2 × 5, 5 treated
[18] = 5-day course, 20 mg/m^2 × 5, 10 treated
[19] = single-dose (34 patients), 3 wks
[20] = single-dose (34 patients), 6 wks
[21] = single-dose (34 patients), 9 wks
[22] = single-dose (34 patients), 12 wks
[23] = single-dose, 110 mg/m^2, 2 treated
[24] = single-dose, 120 mg/m^2, 7 treated
[25] = single-dose, 180 mg/m^2, 9 treated

## CC[C@@]1(O)C(=O)OCc2c1cc1n(c2=O)Cc2cc3cc4c(cc3nc2-1)OCO4 [10,11 methylene dioxycamptothecin]
[1]
  solubility in water: relatively insoluble in water

## CC[C@@]1(O)C(=O)OCc2c1cc1n(c2=O)Cc2cc3ccccc3nc2-1 [CPT, camptothecin]
[2]
  inhibition of topoisomerase I: inhibited
LD1210 leukemia
  T/C (treated/control) ratios: superior T/C (treated/control) ratios relative to mice treated in the same manner with 7-ethyl camptothecin (ECPT) and 10-hydroxy 7-ethyl camptothecin (HECPT); also recorded: inferior to that of CPT-11 administration under the same conditions
[3]
  toxicity in clinical trials: unpredictable myelosuppression and hemorrhagic cystitis
[4]; gastrointestinal cancer
  investigators' conclusion on toxicity and clinical value: a drug of protean and unpredictable toxicity that has no clinical value
[5]; oral or parenteral, lactone form, expected
  renal elimination of CPT: minimal
[5]; predicted
  frequency of hemorrhagic cystitis relative to sodium CPT: significantly reduced
[6]; human, in vivo
  cystitis as nonhematologic toxic effect: Cystitis was another toxic effect occurring frequently
  excretion: excreted unchanged by the kidneys
[7]
  form predominating: closed form of CPT predominates
[8]
  absorption following ingestion: improved absorption of the drug following ingestion
DNA
  nature of DNA strand breaks: Virtually all of the DNA strand breaks observed in vitro cells treated with CPT are protein linked
[9]
  stabilization of the cleavable complex: only the closed lactone form of the drug helps stabilize the cleavable complex
L1210 cells
  unexplained protein-free breaks: an increase in unexplained protein-free breaks can be detected

## sodium salt of camptothecin [CPT sodium]
[3]
  toxicity in clinical trials: unpredictable and severe myelosuppression, gastrointestinal toxicity, hemorrhagic cystitis, and alopecia
[4]; 5-Day Course, P < 0.05
  Cystitis: 48 % of 27 Patients
[4]; [13]
  Objective results: Improved: 1 patients
  Objective results: Stable: 12 patients
  Objective results: Worse: 14 patients
[4]; [14]
  Objective results: Stable: 7 patients
  Objective results: Worse: 20 patients
[4]; [15]
  Objective results: Stable: 6 patients
  Objective results: Worse: 21 patients
[4]; 5-day course, 11 mg/m^2 × 5, 2 treated
  Cystitis, No. of Patients: 1 No. of Patients
[4]; [16]
  Cystitis, No. of Patients: 4 No. of Patients
  Diarrhea, No. of Patients: 1 No. of Patients
[4]; [17]
  Cystitis, No. of Patients: 2 No. of Patients
  Diarrhea, No. of Patients: 4 No. of Patients
[4]; [18]
  Cystitis, No. of Patients: 6 No. of Patients
  Diarrhea, No. of Patients: 4 No. of Patients
[4]; 5-day course, 22 mg/m^2 × 5, 1 treated
  Diarrhea, No. of Patients: 1 No. of Patients
[4]; Single Dose
  Cystitis: 24 % of 34 Patients
[4]; after 2 months (8 or 9 weeks), both large bowel cancer
  partial objective improvement: two
[4]; at 3 months, 61 patients
  improvement: none showed improvement
[4]; at 3 wks only
  25%-50% response: 3 patients
[4]; higher doses
  persistence of severe diarrhea: ≤ 4 weeks
[4]; human, in vivo
  onset of cystitis: 7 to 10 days
[4]; [19]
  Objective results: Improved: 4 patients
  Objective results: Stable: 17 patients
  Objective results: Worse: 13 patients
[4]; [20]
  Objective results: Improved: 2 patients
  Objective results: Stable: 11 patients
  Objective results: Worse: 21 patients
[4]; [21]
  Objective results: Improved: 2 patients
  Objective results: Stable: 8 patients
  Objective results: Worse: 24 patients
[4]; [22]
  Objective results: Stable: 6 patients
  Objective results: Worse: 28 patients
[4]; single-dose, 100 mg/m^2, 6 treated
  Cystitis, No. of Patients: 2 No. of Patients
[4]; [23]
  Cystitis, No. of Patients: 1 No. of Patients
  Diarrhea, No. of Patients: 1 No. of Patients
[4]; [24]
  Cystitis, No. of Patients: 2 No. of Patients
  Diarrhea, No. of Patients: 4 No. of Patients
[4]; [25]
  Cystitis, No. of Patients: 3 No. of Patients
  Diarrhea, No. of Patients: 2 No. of Patients
[6]; doses of 20 to 30 mg/m^2
  Bladder toxicity, dose limiting: three
[6]; doses of 44 and 30 mg/m^2
  Bladder toxicity, additional patients: two
[6]; eight patients with measurable disease, 5-day courses
  clinical benefit: No clinical benefit was observed
[6]; human, in vivo
  cystitis as nonhematologic toxic effect: Cystitis was the most prominent nonhematologic toxic effect
  major dose-limiting toxic effect: Reversible leukopenia
[6]; total dose of 100 mg/m^2
  prolonged leukopenia after daily treatment: four
[6]; weekly courses
  clinical responses: two
Malignant melanoma; 90-360 mg/m^2 every 2 weeks, fifteen patients
  50% or greater decrease in tumor diameter: None
Malignant melanoma; fifteen patients
  myelosuppression: 11 patients
Malignant melanoma; human, in vivo
  toxic effects: nausea and vomiting, alopecia, diarrhea, and hemorrhagic cystitis
Malignant melanoma; no clinical benefit, fifteen patients
  less pronounced transient tumor regression: three
[10]
  relation of plasma CPT levels to dose: little relation to the dose given
[11]; first 48 hours, iv
  mean urine recovery of CPT: 17.4%
  urine recovery of CPT, range: 3.6-38.9%
[11]; iv, 2880 min
  mean urine recovery of CPT excluding the 5 patients with impaired excretion: 22.8%
[11]; moderately dehydrated patients
  sterile hemorrhagic cystitis: 3 patients

## CC[C@@](O)(C(=O)O)c1cc2n(c(=O)c1CO)Cc1cc3ccccc3nc1-2 [carboxylate form of CPT]
[12]
  reduction of antitumor activity: at least 10 fold
